Measured values as given in patent publication US8410170B2, “Use of isothiocyanates compounds in treating prostatic diseases and skin cancer” (Wuxi JC Pharmaceutical Technology Co., Ltd., priority 2005, dated 2013).

Legend:
[1] = tested on: PSA; assay: Western blot to detect PSA in LNCaP cells; format: cell-based, human; settings: 24 hrs
Experimental: (§1) The cells were harvested, washed and total cellular proteins were extracted as described previously (as Example 2). Fifty μg proteins were then subjected to electrophoresis in SDS-PAGE, electro-transferred to nitrocellulose filters, and immunoblotted initially with antibodies against AR, Sp1, and PSA. The same membranes were stripped and re-probed with β-actin for loading control. The result was recorded by ECL films.

[2] = tested on: human prostate cancer cell line LNCaP; assay: MTT and SRB cell growth assay, LNCaP; format: cell-based; settings: LNCaP; for IC50: Homo sapiens, MTT and SRB, read-out: IC50, growth inhibition
Experimental: MTT and SRB method as described in the reference (Kreis, Budman et al. 1997). Briefly, human prostate cancer cells grown exponentially were aliquoted into 96-well plates at a density of 5000 cells/200 μl per well. Twenty-four hrs after the incubation, the cells were exposed for three or seven days to serial dilutions of indicated isothiocyanate. After the incubation, 100 μl of the medium was removed from each of the wells and 50 μl solution of 3-(4,5-dimethyl-thiazol-2-yl)-2,5-diphenyltetrazolium bromide (MTT) was added, the cells were incubated for an additional 4 hrs and then 200 μl of 0.04 N HCl-isopropanol was added to each well to dissolve the black formazan precipitates. The absorbance was measured at wavelength 540 nm. For SRB method, remove the medium after 72 hrs. The cells on 96-well dishes were fixed with 10% trichloride acetic acid for 1 hr, air-dried for 24 hrs. The cells were then stained with 50 μl of SRB (sulforhodamine B) for […]. After extensive washes with 1% acetic acid for 5 times, air-dried, the purple protein-SRB complex was dissolved in 200 μl 10 mM Tris-HCl buffer (pH 10.0), and the absorbance was measured at the wavelength of 540 and 630 nm. The percent of cell survival (T/C%) were calculated based on the results of test groups to that of the control group. The semi-exponential curves of the percent of cell survival (T/C%) to the drug concentrations (FIG. 8) and IC50 were obtained by using Sigma-plot program.

[3] = tested on: GSTP1; assay: Western blot to detect GSTP1 protein in LNCaP cells; format: cell-based, human; settings: LNCaP cells exposed 24 hrs
Experimental: Western blot to detect GSTP1 protein (FIG. 1): […] The cells were harvested, washed and total cellular proteins were extracted as described previously (Wang, […], et al. […] Cancer Res 61(20): 7544-51, 2001). Fifty μg cellular extracts were separated on a SDS-PAGE, electro-transferred to nitrocellulose filters, and immunoblotted initially with antibodies against GSTP1. The same membranes were stripped and re-probed with β-actin for loading control. The result was recorded by ECL films.

[4] = tested on: Sp1; assay: Western blot to detect Sp1 in LNCaP cells; format: cell-based, human; settings: 24 hrs
Experimental: as §1

[5] = tested on: transcription factor Sp1; assay: Sp1-luc luciferase activity assay in transfected LNCaP AD cells; format: cell-based, human; settings: 24 hrs
Excerpt: The Sp1-luc and mtSp1-luc contain three tandem repeats of consensus Sp1 sites driving the luciferase gene and its mutant. […] Effectene transfection reagent and luciferase assay kit were acquired from Qiagen (Valencia, Calif., USA) and Promega (Madison, Wis., USA). Reagents for protein electrophoresis were purchased from Bio-Rad company (USA). The other chemicals were purchased from Sigma (St. Louis, Mo.) otherwise as indicated. […] (Gao, M., Ossowski, L., and Ferrari, A. C. Activation of Rb and decline in androgen receptor protein precede retinoic acid-induced apoptosis in androgen-dependent LNCaP cells and their androgen-independent derivative. J Cell Physiol, 179: 336-346, 1999). The AD and AI cells were maintained in RPMI-1640 with 10% fetal bovine serum (FBS) and charcoal stripped fetal bovine serum, penicillin-streptomycin for incubation at 5% CO2 and 37° C. respectively. […] After incubation for 24 hrs at 5% CO2 and 37° C., the cells were transfected with 1 μg/dish of SP1-luciferase gene (Sp1-luc), or its mutant mtSp1-luc using Effectene (Qiagen, Valencia, Calif.) as the transfection reagent. […] The cells were collected, washed, lysed, and the lysates were used for luciferase activity assay using Promega luciferase assay system.

[6] = tested on: LNCaP AD; assay: MTT growth inhibition, hormone dependent LNCaP AD; format: cell-based; settings: Homo sapiens, 168 h; LNCaP AD, seven days, MTT; read-out: IC50, growth inhibition
Excerpt: (§2) The human prostate cancer cell line LNCaP AD was purchased from the American Type Culture Collection. LNCaP AI cell line was derived from LNCaP cells using a method described previously by Gao et al. (Gao, M., Ossowski, L., and Ferrari, A. C. Activation of Rb and decline in androgen receptor protein precede retinoic acid-induced apoptosis in androgen-dependent LNCaP cells and their androgen-independent derivative. J Cell Physiol, 179: 336-346, 1999). The AD and AI cells were maintained in RPMI-1640 with 10% fetal bovine serum (FBS) and charcoal stripped fetal bovine serum, penicillin-streptomycin for incubation at 5% CO2 and 37° C. respectively.
(§3) MTT: MTT and SRB method were used to determine the effects of various isothiocyanates on cell growth as described previously (Kreis, Budman et al, 1997). Briefly, human prostate cancer cell line LNCaP grown exponentially were aliquoted into 96-well plates at a density of 2500 cells/200 μl per well. Twenty-four hrs after the incubation, the cells were exposed for seven days to serial dilutions of indicated isothiocyanate or paclitaxel. […] The absorbance was measured at wavelength 540 nm. The percent of cell survival (T/C%) were calculated based on the results of test groups to that of the control group. […]

[7] = tested on: LNCaP AI; assay: MTT growth inhibition, hormone independent LNCaP AI; format: cell-based; settings: Homo sapiens, 168 h; LNCaP AI, seven days, MTT; read-out: IC50, growth inhibition
Excerpt: as §2, §3

SMILES | expression of PSA (Western blot) [1] | Percent of Cell Survival (T/C %) ([2]; 0.0390 μM) | Percent of Cell Survival (T/C %) ([2]; 0.0780 μM) | Percent of Cell Survival (T/C %) ([2]; 0.1562 μM) | Percent of Cell Survival (T/C %) ([2]; 0.3125 μM) | Percent of Cell Survival (T/C %) ([2]; 0.6250 μM) | Percent of Cell Survival (T/C %) ([2]; 1.2500 μM) | Percent of Cell Survival (T/C %) ([2]; 2.5000 μM) | Percent of Cell Survival (T/C %) ([2]; 5.0000 μM) | Percent of Cell Survival (T/C %) ([2]; 10.0000 μM) | Percent of Cell Survival (T/C %) ([2]; 20.0000 μM) | IC50 [2] | expression of GSTP1 (Western blot) [3] | expression of Sp1 (Western blot) [4] | luciferase activity of Sp1-luc transfected gene [5] | IC50 [6] | IC50 [7]
C=CCN=C=S [AITC, allyl isothiocyanate] | minimal activities | 98.84% | 98.92% | 98.26% | 98.55% | 97.10% | 99.49% | 83.95% | 47.60% | 41.01% | 38.69% | ~10000 nM | effectively induce | minimal activities | – | – | –
S=C=NCc1ccccc1 [BITC, benzyl isothiocyanate] | significantly inhibited | 94.09% | 95.64% | 97.91% | 95.82% | 71.25% | 27.95% | 14.83% | 5.07% | 0.88% | 0.94% | 800 to 1500 nM | effectively induce | significantly inhibited | – | – | –
O=S(=O)(O)c1ccc(N=C=S)cc1 [SPITC, 4-sulfophenylisothiocyanate] | no effect | 99.54% | 101.43% | 101.43% | 99.66% | 98.26% | 101.56% | 104.37% | 100.60% | 101.33% | 99.88% | – | effectively induce | no effect | – | – | –
CC(/C=C/C(=O)NO)=C\[C@@H](C)C(=O)c1ccc(N(C)C)cc1 [TSA, trichostatin A, reference compound] | – | – | – | – | – | – | – | – | – | – | – | – | – | – | significantly stimulated | – | –
CC(=O)O[C@H]1C(=O)[C@@]2(C)[C@H]([C@H](OC(=O)c3ccccc3)[C@]3(O)C[C@H](OC(=O)[C@H](O)[C@@H](NC(=O)c4ccccc4)c4ccccc4)C(C)=C1C3(C)C)[C@]1(OC(C)=O)CO[C@@H]1C[C@@H]2O [paclitaxel, reference compound] | – | – | – | – | – | – | – | – | – | – | – | – | – | – | – | 0.01 nM | 0.6 nM
